Measured values taken from ChEMBL document CHEMBL1687791, “Identification and characterization of four azole-resistant erg3 mutants of Candida albicans” (2010).
In brackets after ≈: the same amount, converted by molar mass.

Key:
Type in all cases: functional
[1] = test system: Candida albicans; experiment: Antifungal activity against Candida albicans isolate 6 assessed as ergosterol content in total sterol composition at 0.5 times MIC by GC-MS analysis
[2] = test system: Candida albicans; experiment: Antifungal activity against Candida albicans isolate 14 assessed as ergosterol content in total sterol composition at 0.5 times MIC by GC-MS analysis
[3] = test system: Candida albicans; experiment: Antifungal activity against Candida albicans isolate 177 assessed as ergosterol content in total sterol composition at 0.5 times MIC by GC-MS analysis
[4] = test system: Candida albicans; experiment: Antifungal activity against Candida albicans isolate 12 harboring ERG3 W332R mutant gene assessed as ergosterol content in total sterol composition at 0.5 times MIC by GC-MS analysis
[5] = test system: Candida albicans; experiment: Antifungal activity against Candida albicans isolate 488 harboring ERG3 H243N, T330A, A351V and ERG11 D225G, E266D, E391G, V488I mutant genes assessed as ergosterol content in total sterol composition at 0.5 times MIC by GC-MS analysis
[6] = test system: Candida albicans; experiment: Antifungal activity against Candida albicans isolate 490 harboring ERG3 D147G, T330A, A351V and ERG11 F72S, T229A, E266D, N440S, V488I, R523G mutant genes assessed as ergosterol content in total sterol composition at 0.5 times MIC by GC-MS analysis
[7] = test system: Candida albicans; experiment: Antifungal activity against Candida albicans isolate 12 harboring ERG3 W332R mutant gene assessed as ergosta 7,22-dienol content in total sterol composition at 0.5 times MIC by GC-MS analysis
[8] = test system: Candida albicans; experiment: Antifungal activity against Candida albicans isolate 177 assessed as 14alpha-methyl fecosterol content in total sterol composition at 0.5 times MIC by GC-MS analysis
[9] = test system: Candida albicans; experiment: Antifungal activity against Candida albicans isolate 12 harboring ERG3 W332R mutant gene assessed as 14alpha-methyl fecosterol content in total sterol composition at 0.5 times MIC by GC-MS analysis
[10] = test system: Candida albicans; experiment: Antifungal activity against Candida albicans isolate 488 harboring ERG3 H243N, T330A, A351V and ERG11 D225G, E266D, E391G, V488I mutant genes assessed as 14alpha-methyl fecosterol content in total sterol composition at 0.5 times MIC by GC-MS analysis
[11] = test system: Candida albicans; experiment: Antifungal activity against Candida albicans isolate 490 harboring ERG3 D147G, T330A, A351V and ERG11 F72S, T229A, E266D, N440S, V488I, R523G mutant genes assessed as 14alpha-methyl fecosterol content in total sterol composition at 0.5 times MIC by GC-MS analysis
[12] = test system: Candida albicans; experiment: Antifungal activity against Candida albicans isolate 1008 harboring ERG3 K97E, L193P, V237A, A351V, A353T and ERG11 E266D mutant genes assessed as 14alpha-methyl fecosterol content in total sterol composition at 0.5 times MIC by GC-MS analysis
[13] = test system: Candida albicans; experiment: Antifungal activity against Candida albicans isolate 177 assessed as 14alpha-methylergosta-8,24(28)-dien-3beta,6alpha-diol content in total sterol composition at 0.5 times MIC by GC-MS analysis
[14] = test system: Candida albicans; experiment: Antifungal activity against Candida albicans isolate 12 harboring ERG3 W332R mutant gene assessed as 14alpha-methylergosta-8,24(28)-dien-3beta,6alpha-diol content in total sterol composition at 0.5 times MIC by GC-MS analysis
[15] = test system: Candida albicans; experiment: Antifungal activity against Candida albicans isolate 488 harboring ERG3 H243N, T330A, A351V and ERG11 D225G, E266D, E391G, V488I mutant genes assessed as 14alpha-methylergosta-8,24(28)-dien-3beta,6alpha-diol content in total sterol composition at 0.5 times MIC by GC-MS analysis
[16] = test system: Candida albicans; experiment: Antifungal activity against Candida albicans isolate 490 harboring ERG3 D147G, T330A, A351V and ERG11 F72S, T229A, E266D, N440S, V488I, R523G mutant genes assessed as 14alpha-methylergosta-8,24(28)-dien-3beta,6alpha-diol content in total sterol composition at 0.5 times MIC by GC-MS analysis
[17] = test system: Candida albicans; experiment: Antifungal activity against Candida albicans isolate 14 assessed as lanosterol/obtusifoliol content in total sterol composition at 0.5 times MIC by GC-MS analysis
[18] = test system: Candida albicans; experiment: Antifungal activity against Candida albicans isolate 177 assessed as lanosterol/obtusifoliol content in total sterol composition at 0.5 times MIC by GC-MS analysis
[19] = test system: Candida albicans; experiment: Antifungal activity against Candida albicans isolate 12 harboring ERG3 W332R mutant gene assessed as lanosterol/obtusifoliol content in total sterol composition at 0.5 times MIC by GC-MS analysis
[20] = test system: Candida albicans; experiment: Antifungal activity against Candida albicans isolate 488 harboring ERG3 H243N, T330A, A351V and ERG11 D225G, E266D, E391G, V488I mutant genes assessed as lanosterol/obtusifoliol content in total sterol composition at 0.5 times MIC by GC-MS analysis
[21] = test system: Candida albicans; experiment: Antifungal activity against Candida albicans isolate 490 harboring ERG3 D147G, T330A, A351V and ERG11 F72S, T229A, E266D, N440S, V488I, R523G mutant genes assessed as lanosterol/obtusifoliol content in total sterol composition at 0.5 times MIC by GC-MS analysis
[22] = test system: Candida albicans; experiment: Antifungal activity against Candida albicans isolate 1008 harboring ERG3 K97E, L193P, V237A, A351V, A353T and ERG11 E266D mutant genes assessed as lanosterol/obtusifoliol content in total sterol composition at 0.5 times MIC by GC-MS analysis
[23] = test system: Candida albicans; experiment: Antifungal activity against Candida albicans isolate 6 assessed as eburicol content in total sterol composition at 0.5 times MIC by GC-MS analysis
[24] = test system: Candida albicans; experiment: Antifungal activity against Candida albicans isolate 177 assessed as eburicol content in total sterol composition at 0.5 times MIC by GC-MS analysis
[25] = test system: Candida albicans; experiment: Antifungal activity against Candida albicans isolate 12 harboring ERG3 W332R mutant gene assessed as eburicol content in total sterol composition at 0.5 times MIC by GC-MS analysis
[26] = test system: Candida albicans; experiment: Antifungal activity against Candida albicans isolate 488 harboring ERG3 H243N, T330A, A351V and ERG11 D225G, E266D, E391G, V488I mutant genes assessed as eburicol content in total sterol composition at 0.5 times MIC by GC-MS analysis
[27] = test system: Candida albicans; experiment: Antifungal activity against Candida albicans isolate 1008 harboring ERG3 K97E, L193P, V237A, A351V, A353T and ERG11 E266D mutant genes assessed as eburicol content in total sterol composition at 0.5 times MIC by GC-MS analysis
[28] = test system: Candida albicans; experiment: Antifungal activity against Candida albicans isolate 6 by broth microdilution method
[29] = test system: Candida albicans; experiment: Antifungal activity against Candida albicans isolate 14 by broth microdilution method
[30] = test system: Candida albicans; experiment: Antifungal activity against Candida albicans isolate 177 by broth dilution method
[31] = test system: Candida albicans; experiment: Antifungal activity against Candida albicans isolate 12 harboring ERG3 W332R mutant gene by broth microdilution method
[32] = test system: Candida albicans; experiment: Antifungal activity against Candida albicans isolate 488 harboring ERG3 H243N, T330A, A351V and ERG11 D225G, E266D, E391G, V488I mutant genes by broth microdilution method
[33] = test system: Candida albicans; experiment: Antifungal activity against Candida albicans isolate 490 harboring ERG3 D147G, T330A, A351V and ERG11 F72S, T229A, E266D, N440S, V488I, R523G mutant genes by broth microdilution method
[34] = test system: Candida albicans; experiment: Antifungal activity against Candida albicans isolate 1008 harboring ERG3 K97E, L193P, V237A, A351V, A353T and ERG11 E266D mutant genes by broth microdilution method
[35] = test system: Candida albicans; experiment: Antifungal activity against Candida albicans isolate 6 by broth microdilution method in presence of 10 uM drug efflux inhibitor FK506
[36] = test system: Candida albicans; experiment: Antifungal activity against Candida albicans isolate 14 by broth microdilution method in presence of 10 uM drug efflux inhibitor FK506
[37] = test system: Candida albicans; experiment: Antifungal activity against Candida albicans isolate 177 by broth dilution method in presence of 10 uM drug efflux inhibitor FK506
[38] = test system: Candida albicans; experiment: Antifungal activity against Candida albicans isolate 12 harboring ERG3 W332R mutant gene by broth microdilution method in presence of 10 uM drug efflux inhibitor FK506
[39] = test system: Candida albicans; experiment: Antifungal activity against Candida albicans isolate 488 harboring ERG3 H243N, T330A, A351V and ERG11 D225G, E266D, E391G, V488I mutant genes by broth microdilution method in presence of 10 uM drug efflux inhibitor FK506
[40] = test system: Candida albicans; experiment: Antifungal activity against Candida albicans isolate 490 harboring ERG3 D147G, T330A, A351V and ERG11 F72S, T229A, E266D, N440S, V488I, R523G mutant genes by broth microdilution method in presence of 10 uM drug efflux inhibitor FK506
[41] = test system: Candida albicans; experiment: Antifungal activity against Candida albicans isolate 1008 harboring ERG3 K97E, L193P, V237A, A351V, A353T and ERG11 E266D mutant genes by broth microdilution method in presence of 10 uM drug efflux inhibitor FK506

OC(Cn1cncn1)(Cn1cncn1)c1ccc(F)cc1F [FLUCONAZOLE]
Activity [1]: 74.5% | Activity [2]: 89.4% | Activity [3]: 76% | Activity [4]: 2.6% | Activity [5]: 7.2% | Activity [6]: 3.5% | Activity [7]: 1.7% | Activity [8]: 2% | Activity [9]: 64.3% | Activity [10]: 55.6% | Activity [11]: 69.2% | Activity [12]: 74% | Activity [13]: 6.5% | Activity [14]: 1.6% | Activity [15]: 14.3% | Activity [16]: 13.7% | Activity [17]: 10.6% | Activity [18]: 10.6% | Activity [19]: 18.3% | Activity [20]: 15.2% | Activity [21]: 13.7% | Activity [22]: 14.4% | Activity [23]: 5.4% | Activity [24]: 4.9% | Activity [25]: 11.6% | Activity [26]: 7.7% | Activity [27]: 9.8% | MIC [28]: 256 µg/mL (≈ 836 µM) | MIC [29]: 1 µg/mL (≈ 3.27 µM) | MIC [30]: 256 µg/mL (≈ 836 µM) | MIC [31]: > 256 µg/mL | MIC [32]: > 256 µg/mL | MIC [33]: > 256 µg/mL | MIC [34]: > 256 µg/mL | MIC [35]: 1 µg/mL | MIC [36]: 1 µg/mL | MIC [37]: 0.5 µg/mL | MIC [38]: > 256 µg/mL | MIC [39]: 2 µg/mL | MIC [40]: 2 µg/mL | MIC [41]: > 256 µg/mL

Clc1ccccc1C(c1ccccc1)(c1ccccc1)n1ccnc1 [CLOTRIMAZOLE]
MIC [28]: 1 µg/mL (≈ 2.9 µM) | MIC [29]: 0.0625 µg/mL (≈ 0.181 µM) | MIC [30]: 1 µg/mL (≈ 2.9 µM) | MIC [31]: 1 µg/mL (≈ 2.9 µM) | MIC [32]: 1 µg/mL (≈ 2.9 µM) | MIC [33]: 1 µg/mL (≈ 2.9 µM) | MIC [34]: 1 µg/mL (≈ 2.9 µM)

C[C@@H]1[C@H](O)[C@@H](C)/C=C/C=C/C=C/C=C/C=C/C=C/C=C/[C@H](O[C@@H]2O[C@H](C)[C@@H](O)[C@H](N)[C@@H]2O)C[C@@H]2O[C@](O)(C[C@@H](O)C[C@@H](O)[C@H](O)CC[C@@H](O)C[C@@H](O)CC(=O)O[C@H]1C)C[C@H](O)[C@H]2C(=O)O [AMPHOTERICIN B]
MIC [28]: 0.25 µg/mL (≈ 0.271 µM) | MIC [29]: 0.25 µg/mL (≈ 0.271 µM) | MIC [30]: 0.25 µg/mL (≈ 0.271 µM) | MIC [31]: 0.5 µg/mL (≈ 0.541 µM) | MIC [32]: 0.25 µg/mL (≈ 0.271 µM) | MIC [33]: 0.25 µg/mL (≈ 0.271 µM) | MIC [34]: 1 µg/mL (≈ 1.08 µM)
